Assay results taken from ChEMBL document CHEMBL1201862, “PubChem BioAssay data set” (2004).
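Assay format: 96-well plates, 48-hour exposure. GI50 is the concentration that inhibits growth by half.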 Calls of active or inactive are those of the source. Rule as the data show it: active = GI50 up to about 1.1 µM and inactive = higher. Where a SMILES comes first, the peptide text is derived from it. The star is where a group is joined. Cbz = O=C(OCc1ccccc1)*

What was measured:
Test in all cases: inhibition of tumour cell growth, NCI panel, 48 h
786-0 = system: 786-0
COLO 205 = system: COLO 205
DU-145 = system: DU-145
HCT-116 = system: HCT-116
HCT-15 = system: HCT-15
KM12 = system: KM12
M14 = system: M14
MOLT-4 = system: MOLT-4
OVCAR-3 = system: OVCAR-3
OVCAR-5 = system: OVCAR-5
SF-539 = system: SF-539
SN12C = system: SN12C
SR = system: SR
T47D = system: T47D
TK-10 = system: TK-10
UO-31 = system: UO-31
CCRF-CEM = system: CCRF-CEM

| Structure (SMILES) | GI50 (786-0) | GI50 (COLO 205) | GI50 (DU-145) | GI50 (HCT-116) | GI50 (HCT-15) | GI50 (KM12) | GI50 (M14) | GI50 (MOLT-4) | GI50 (OVCAR-3) | GI50 (OVCAR-5) | GI50 (SF-539) | GI50 (SN12C) | GI50 (SR) | GI50 (T47D) | GI50 (TK-10) | GI50 (UO-31) | GI50 (CCRF-CEM) |
| --- | --- | --- | --- | --- | --- | --- | --- | --- | --- | --- | --- | --- | --- | --- | --- | --- | --- |
| CCCCn1cnc2c(SC)ncnc21 | > 100 µM (inactive) | > 100 µM (inactive) | > 100 µM (inactive) | > 100 µM (inactive) | > 100 µM | > 100 µM (inactive) | > 100 µM (inactive) | 28.4 µM (inactive) | > 100 µM (inactive) | > 100 µM (inactive) | > 100 µM (inactive) | > 100 µM (inactive) | 3.45 µM (inactive) | > 100 µM (inactive) | > 100 µM (inactive) | > 100 µM (inactive) | – |
| CN(O)C(=O)CCC(NC(=O)CCC(N)C(=O)O)C(=O)NCC(=O)O (centres undefined) | > 100 µM (inactive) | > 100 µM (inactive) | > 100 µM (inactive) | > 100 µM (inactive) | > 100 µM | > 100 µM (inactive) | > 100 µM (inactive) | > 100 µM (inactive) | > 100 µM (inactive) | > 100 µM (inactive) | > 100 µM (inactive) | > 100 µM (inactive) | – | > 100 µM (inactive) | > 100 µM (inactive) | > 100 µM (inactive) | > 100 µM (inactive) |
| CNc1ncnc2c1cnn2Cc1cn(COCC(O)CO)nn1 (centres undefined) | > 100 µM (inactive) | > 100 µM (inactive) | > 100 µM (inactive) | > 100 µM (inactive) | > 100 µM | > 100 µM (inactive) | > 100 µM (inactive) | – | > 100 µM (inactive) | > 100 µM (inactive) | > 100 µM (inactive) | > 100 µM (inactive) | – | > 100 µM (inactive) | > 100 µM (inactive) | > 100 µM (inactive) | > 100 µM (inactive) |
| CC(=O)NC(Cc1ccc(O)cc1)C(=O)O (centres undefined) | > 100 µM (inactive) | > 100 µM (inactive) | > 100 µM (inactive) | > 100 µM (inactive) | > 100 µM | > 100 µM (inactive) | > 100 µM (inactive) | > 100 µM (inactive) | > 100 µM (inactive) | > 100 µM (inactive) | – | > 100 µM (inactive) | – | > 100 µM (inactive) | > 100 µM (inactive) | > 100 µM (inactive) | – |
| N=C(N)NS(=O)(=O)c1ccc(NC(=O)c2c3ccccc3nc3ccccc23)cc1 | > 100 µM (inactive) | > 100 µM (inactive) | > 100 µM (inactive) | > 100 µM (inactive) | > 100 µM | > 100 µM (inactive) | > 100 µM (inactive) | > 100 µM (inactive) | > 100 µM (inactive) | > 100 µM (inactive) | > 100 µM (inactive) | > 100 µM (inactive) | > 100 µM (inactive) | – | > 100 µM (inactive) | > 100 µM (inactive) | > 100 µM (inactive) |
| CC(C)(C)OC(=O)NC(C)(C)C(=O)NCCC(=O)O | > 100 µM (inactive) | > 100 µM (inactive) | – | – | > 100 µM | > 100 µM (inactive) | > 100 µM (inactive) | > 100 µM (inactive) | > 100 µM (inactive) | > 100 µM (inactive) | > 100 µM (inactive) | > 100 µM (inactive) | – | > 100 µM (inactive) | > 100 µM (inactive) | > 100 µM (inactive) | > 100 µM (inactive) |
| CC(=O)O[C@@H]1C2=C(C)C=C(O2)[C@H]2O[C@]2(C)C[C@H]2C=C(C(=O)O2)[C@H](OC(C)=O)CC1[C@@]1(C)CO1 (some centres undefined) | 23.9 µM (inactive) | 14.1 µM (inactive) | 31.3 µM (inactive) | 15.1 µM (inactive) | 22 µM | 36.6 µM (inactive) | 23.8 µM (inactive) | 9.64 µM (inactive) | – | 26.4 µM (inactive) | 29.5 µM (inactive) | 21.3 µM (inactive) | 18.7 µM (inactive) | 18.8 µM (inactive) | 60.3 µM (inactive) | 20.1 µM (inactive) | 8.59 µM (inactive) |
| Cc1ccccc1/N=N/c1ccc(/N=N/c2c(O)ccc3cc(S(=O)(=O)O)cc(S(=O)(=O)O)c23)c(C)c1 | > 100 µM (inactive) | > 100 µM (inactive) | – | > 100 µM (inactive) | > 100 µM | > 100 µM (inactive) | > 100 µM (inactive) | > 100 µM (inactive) | > 100 µM (inactive) | > 100 µM (inactive) | > 100 µM (inactive) | – | > 100 µM (inactive) | – | > 100 µM (inactive) | > 100 µM (inactive) | > 100 µM (inactive) |
| CC(C)(C)OC(=O)C1=C(N)N(Cc2ccccc2)C2(C)C=CC(=O)C=C12 (centres undefined) | 3.83 µM (inactive) | 2.3 µM (inactive) | 4.04 µM (inactive) | 3.27 µM (inactive) | 3.21 µM | 6.49 µM (inactive) | 2.98 µM (inactive) | 2.48 µM (inactive) | 3.1 µM (inactive) | 18.1 µM (inactive) | 5.3 µM (inactive) | 8.47 µM (inactive) | – | 3.1 µM (inactive) | 3.44 µM (inactive) | 3.52 µM (inactive) | 2.58 µM (inactive) |
| O=[N+]([O-])/C(C(Cl)=C(Cl)Cl)=C(\Nc1ccccc1)n1nnc2ccccc21 | 48.9 µM (inactive) | 27 µM (inactive) | – | 65.3 µM (inactive) | > 100 µM | 20.5 µM (inactive) | 65 µM (inactive) | 35.5 µM (inactive) | 48.1 µM (inactive) | 42.1 µM (inactive) | 32.3 µM (inactive) | > 100 µM (inactive) | – | > 100 µM (inactive) | – | 21.9 µM (inactive) | 21.4 µM (inactive) |
| Cc1nc2ccc(S(=O)(=O)Nc3ccccc3)cc2c(=O)n1NC(=O)CNc1ccccc1 | > 100 µM (inactive) | > 100 µM (inactive) | > 100 µM (inactive) | > 100 µM (inactive) | > 100 µM | > 100 µM (inactive) | > 100 µM (inactive) | > 100 µM (inactive) | > 100 µM (inactive) | > 100 µM (inactive) | > 100 µM (inactive) | > 100 µM (inactive) | > 100 µM (inactive) | – | > 100 µM (inactive) | > 100 µM (inactive) | > 100 µM (inactive) |
| Cc1ccc(S(=O)(=O)NNC(=S)Nc2cccc3ccccc23)cc1 | 14.2 µM (inactive) | 36.8 µM (inactive) | 69 µM (inactive) | 55.2 µM (inactive) | 67.5 µM | 23.4 µM (inactive) | 43.2 µM (inactive) | 38.1 µM (inactive) | – | 89.3 µM (inactive) | 80.4 µM (inactive) | 33.7 µM (inactive) | 46.3 µM (inactive) | 39.5 µM (inactive) | 53.7 µM (inactive) | 43.4 µM (inactive) | 34.7 µM (inactive) |
| CCCC[C@@H]1CCN2C[C@@H](O)[C@@H](O)[C@H]2[C@@H]1O | > 100 µM (inactive) | > 100 µM (inactive) | – | > 100 µM (inactive) | > 100 µM | > 100 µM (inactive) | > 100 µM (inactive) | > 100 µM (inactive) | > 100 µM (inactive) | > 100 µM (inactive) | > 100 µM (inactive) | – | – | – | > 100 µM (inactive) | > 100 µM (inactive) | > 100 µM (inactive) |
| C1=N\CCN2CCN(CC/N=C\c3ccccc3OCc3cccc(n3)COc3ccccc3/1)CC2 | 5.13 µM (inactive) | 19.6 µM (inactive) | 12.8 µM (inactive) | 2.61 µM (inactive) | 6.01 µM | 8.83 µM (inactive) | 7.74 µM (inactive) | 4.6 µM (inactive) | 1.3 µM (inactive) | 9.18 µM (inactive) | 3 µM (inactive) | 10.6 µM (inactive) | 1.71 µM (inactive) | – | 8.3 µM (inactive) | 13.8 µM (inactive) | 3.39 µM (inactive) |
| CC1(C)OC(=O)CC12CCN(Cc1ccccc1)CC2 | > 100 µM (inactive) | > 100 µM (inactive) | > 100 µM (inactive) | > 100 µM (inactive) | > 100 µM | – | – | > 100 µM (inactive) | > 100 µM (inactive) | > 100 µM (inactive) | > 100 µM (inactive) | > 100 µM (inactive) | > 100 µM (inactive) | > 100 µM (inactive) | > 100 µM (inactive) | > 100 µM (inactive) | > 100 µM (inactive) |
| CC(=O)Oc1ccc(/C=C/C(=O)NCC(NC(=O)/C=C/c2ccc(OC(C)=O)c(OC(C)=O)c2)C(=O)O)cc1OC(C)=O (centres undefined) | > 100 µM (inactive) | > 100 µM (inactive) | > 100 µM (inactive) | > 100 µM (inactive) | > 100 µM | > 100 µM (inactive) | > 100 µM (inactive) | 20.1 µM (inactive) | > 100 µM (inactive) | > 100 µM (inactive) | > 100 µM (inactive) | > 100 µM (inactive) | 33.4 µM (inactive) | – | > 100 µM (inactive) | > 100 µM (inactive) | 32 µM (inactive) |
| CCOC(=O)C1(C#N)C(=O)c2cc[n+](CC[n+]3ccc4c(c3)C(=O)C(C#N)(C(=O)OCC)C4=O)cc2C1=O (centres undefined) | > 100 µM (inactive) | > 10 µM (inactive) | > 100 µM (inactive) | > 100 µM (inactive) | > 100 µM | > 100 µM (inactive) | > 100 µM (inactive) | > 100 µM (inactive) | 25.4 µM (inactive) | > 100 µM (inactive) | > 100 µM (inactive) | > 100 µM (inactive) | – | 53.3 µM (inactive) | – | > 100 µM (inactive) | > 100 µM (inactive) |
| COC(=O)C(CC(C)C)NC(=O)C(CCCNC(=N)N)NC(=O)OCc1ccccc1 (stereo not drawn) (Cbz-Arg-Leu-OMe; configuration not given here) | > 100 µM (inactive) | > 100 µM (inactive) | > 100 µM (inactive) | > 100 µM (inactive) | > 100 µM | > 100 µM (inactive) | > 100 µM (inactive) | > 100 µM (inactive) | > 100 µM (inactive) | > 100 µM (inactive) | – | > 100 µM (inactive) | > 100 µM (inactive) | > 100 µM (inactive) | > 100 µM (inactive) | > 100 µM (inactive) | > 100 µM (inactive) |
